The target in assay [1] is T1, human D2S dopamine (hD2S-DA) receptors (Homo sapiens, UniProt P14416).
T1 construct: purchased Receptor Biology, Inc. (Beltsville, Md.); host or cells: A9 L cells
Nature of the assay: Competition radioligand binding, hD2S dopamine.

The target in another assay is T2, human 5-HT1a receptors (Homo sapiens, UniProt P08908).
T2 construct: expressed in transfected cells; host or cells: CHO K1 cells
T2 sequence (P08908 1-422): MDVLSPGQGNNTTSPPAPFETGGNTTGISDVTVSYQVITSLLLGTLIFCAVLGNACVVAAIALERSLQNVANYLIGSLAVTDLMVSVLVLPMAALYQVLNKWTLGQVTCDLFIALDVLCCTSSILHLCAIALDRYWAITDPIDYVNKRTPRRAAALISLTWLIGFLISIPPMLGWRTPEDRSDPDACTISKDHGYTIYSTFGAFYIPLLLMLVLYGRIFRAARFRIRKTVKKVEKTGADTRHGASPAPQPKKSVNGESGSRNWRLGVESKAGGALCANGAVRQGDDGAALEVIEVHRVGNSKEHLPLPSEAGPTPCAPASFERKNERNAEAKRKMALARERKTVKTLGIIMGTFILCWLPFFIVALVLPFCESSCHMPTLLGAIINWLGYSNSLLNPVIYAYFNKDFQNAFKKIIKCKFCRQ
Put plainly: Competition radioligand binding, h5-HT1a. Here is the method:
(§1) Cells and Membrane Preparation: HEK 293 cells stably expressing human 5-HT7B (h5-HT7b) receptors were grown in Dulbecco's Modified Eagle's Medium (DMEM; Gibco) without sodium pyruvate and containing 4.5 g/L glucose, L-glutamine/penicillin-streptomycin (Gemini), 10% fetal bovine serum and 250 mg/l of the antibiotic, G418 (Geneticin) as previously described (Jasper, J. R., Kosaka, A., To, Z. P., Chang, D. J. and Eglen, R. M. (1997) Cloning, expression and pharmacology of a truncated splice variant of the human 5-ht7 receptor (h5-ht7b). Br. J. Pharmacol. 122(1):126-132.). Cell pellets were homogenized in approximately 50 mL of homogenization buffer (buffer A) containing: 50 mM Tris (pH 7.4), 2 mM EGTA, 0.32 M sucrose, 10 μM PMSF, 1 μg/mL leupeptin, 5 μg/mL Pepstatin A, and 5 μg/mL aprotinin using an UltraTurax homogenizer (Tekmar Company, Cincinnati, Ohio) at 80% maximum setting three times for 10 sec. Cell pellets were centrifuged at 4° C. at 1,500×g for 10 min in a Beckman GS-6R centrifuge. Pellets were resuspended in buffer A, homogenized and centrifuged as described above. Pooled supernatants were transferred to centrifuge bottles and centrifuged at 4° C. at 20,000×g for 30 min in a Beckman J2-HS centrifuge. Cell pellets were resuspended in buffer A and were centrifuged at 4° C. at 20,000×g for 30 min. Cell pellets were resuspended in buffer A and stored at −70° C. in aliquots of 2.5 mg/mL total membrane protein. Total membrane protein was assessed utilizing a BCA kit (Pierce; Rockford, Ill.). Membranes containing human 5-HT1a or 5HT2a receptors expressed in CHO K1 cells were prepared as described above.
(§2) Radioligand Binding Assays: For 5-HT7 saturation binding experiments, HEK-293 cell membranes expressing h5-HT7 receptors (5-10 μg membrane protein/well) were incubated in duplicate with [^3H]5-CT (approximately 0.2 nM) in binding assay buffer containing: 50 mM HEPES (pH 7.4), 0.5 mM EDTA, 10 mM MgCl2, 10 μM pargyline to inhibit monoamine oxidase activity, and 0.1% sodium ascorbate, in a final volume of 200 μL in 96-well polypropylene plates for 2 hours at 37° C. Nonspecific binding was determined by incubating membranes with 1 μM 5-HT. All radioligand binding assays were stopped by rapid filtration onto 96-well GF/C filter plates (Packard) soaked in 0.1% polyethylenimine. Filters were washed three times with ice-cold phosphate-buffered saline (PBS) wash buffer containing 50 mM NaPO4 (pH 7.4), 0.9% NaCl, 2 mM MgCl2 and 0.02% NaN3. The filters were then counted using liquid scintillation in a Packard Topcount scintillation counter.
(§3) Data Analysis: Radioligand binding experiments were analyzed with Prism™ (Graphpad, San Diego, Calif.), a computer graphics and statistics program. IC50 values and Hill slopes for compounds were generated by nonlinear regression using Prism™. Values for Ki calculated from IC50 values by the Cheng and Prussoff equation (Cheng, Y. and Prusoff, W. H., (1973), “Relationship between the inhibition constant (Ki) and the concentration of inhibitor which causes 50 per cent inhibition (I50) of an enzymatic reaction.” Biochemical Pharmacol. 22:3099-3108).

A further assay has as its target T3, human 5HT2a receptors (Homo sapiens, UniProt P28223).
T3 construct: expressed in transfected cells; host or cells: CHO K1 cells
Nature of the assay: Competition radioligand binding, 5-HT2A. As for the experimental part: as §1, §2, §3

Assay [2] has as its target T4, human 5-HT7B (h5-HT7b) receptors (Homo sapiens, UniProt P34969).
T4 construct: expressed in transfected cells
Put plainly: Competition radioligand binding, h5-HT7b.
Description: The compounds of the invention interact with 5-HT receptors and show selectivity for 5-HT receptors. The 5-HT receptor binding properties of the compounds are identified by competitive radioligand binding assays wherein membranes prepared from transfected cells expressing the 5-HT receptor subtype of interest. “Binding constants” refers herein to Ki values measured by inhibition of the binding of radiolabelled ligands that are selective for the 5-HT receptor type being studied. For 5-HT7 receptors, Ki values are determined by measuring the inhibition of 5-carboxamidotryptamine (5-CT) binding, wherein 5-HT7 receptors were incubated with the radiolabelled high affinity ligand, 5-carboxamidotryptamine ([^3H]5-CT), in the presence and absence of the compounds of the invention, at varying concentrations. The compounds of the invention have high binding affinity for serotonin receptors as measured by dissociation constant Ki. […] “Selectivity” for receptor type, in the context of this invention, refers to the ratio of binding constants for the two receptor types being compared. […] The compounds of the present invention preferably show selectivity for 5-HT7 receptors over other serotonin receptor subtypes of greater than about 100. The compounds of the present invention also preferably show selectivity for 5-HT7 receptors over other receptor types, such as dopamine D2, of greater than about 100.
as §1
as §2, with “counter. […]” for “counter.”

Assay [3] addresses T5, human 5-HT6 (h5-HT6) receptors (Homo sapiens, UniProt P50406).
T5 construct: purchased Receptor Biology, Inc. (Beltsville, Md.); host or cells: HEK-293 cells
Nature of the assay: Competition radioligand binding, h5-HT6.

Setting [4] is: [3H]Spiperone, membranes of A9 L cells, read-out: Ki D2.
The mark [5] stands for this setting: [3H]5-CT, membranes of CHO K1 cells, read-out: Ki 5-HT1A.
The mark [6] stands for this setting: [3H]Ketanserin, membranes of CHO K1 cells, read-out: Ki 5-HT2A.
Setting [7] is: [3H]5-CT, membranes of HEK 293 cells, read-out: Ki 5-HT7.
Setting [8] is: [3H]LSD, membranes of HEK-293 cells, read-out: Ki 5-HT6.

Read-outs that look alike come from different tables or passages of the source. Bounds are passed on as bounds.

T4 sequence (P34969 1-432 limits assumed): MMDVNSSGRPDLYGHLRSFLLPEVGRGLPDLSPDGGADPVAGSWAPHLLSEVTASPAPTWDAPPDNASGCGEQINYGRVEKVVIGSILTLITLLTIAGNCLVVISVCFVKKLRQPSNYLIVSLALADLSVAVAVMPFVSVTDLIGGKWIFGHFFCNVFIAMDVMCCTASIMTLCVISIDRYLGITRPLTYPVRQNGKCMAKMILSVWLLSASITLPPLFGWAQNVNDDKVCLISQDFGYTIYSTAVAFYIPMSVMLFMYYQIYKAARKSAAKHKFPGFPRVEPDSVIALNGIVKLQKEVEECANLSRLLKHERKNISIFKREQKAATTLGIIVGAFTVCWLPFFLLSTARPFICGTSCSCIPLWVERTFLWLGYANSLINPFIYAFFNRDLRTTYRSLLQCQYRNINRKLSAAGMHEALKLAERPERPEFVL
T3 sequence (P28223 whole entry): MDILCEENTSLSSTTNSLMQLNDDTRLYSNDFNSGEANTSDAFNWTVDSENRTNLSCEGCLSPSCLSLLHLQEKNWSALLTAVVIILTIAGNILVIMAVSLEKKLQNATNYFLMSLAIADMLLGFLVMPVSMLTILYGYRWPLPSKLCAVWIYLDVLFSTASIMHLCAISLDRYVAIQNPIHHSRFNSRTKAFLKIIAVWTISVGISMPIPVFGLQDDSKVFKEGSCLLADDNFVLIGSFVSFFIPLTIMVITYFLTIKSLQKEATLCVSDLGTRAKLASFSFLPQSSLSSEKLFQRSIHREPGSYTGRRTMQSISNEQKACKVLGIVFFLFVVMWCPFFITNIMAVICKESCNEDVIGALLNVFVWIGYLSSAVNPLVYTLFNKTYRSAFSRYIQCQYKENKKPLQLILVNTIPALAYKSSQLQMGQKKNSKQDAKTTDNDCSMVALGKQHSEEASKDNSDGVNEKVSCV
T5 sequence (P50406 whole entry): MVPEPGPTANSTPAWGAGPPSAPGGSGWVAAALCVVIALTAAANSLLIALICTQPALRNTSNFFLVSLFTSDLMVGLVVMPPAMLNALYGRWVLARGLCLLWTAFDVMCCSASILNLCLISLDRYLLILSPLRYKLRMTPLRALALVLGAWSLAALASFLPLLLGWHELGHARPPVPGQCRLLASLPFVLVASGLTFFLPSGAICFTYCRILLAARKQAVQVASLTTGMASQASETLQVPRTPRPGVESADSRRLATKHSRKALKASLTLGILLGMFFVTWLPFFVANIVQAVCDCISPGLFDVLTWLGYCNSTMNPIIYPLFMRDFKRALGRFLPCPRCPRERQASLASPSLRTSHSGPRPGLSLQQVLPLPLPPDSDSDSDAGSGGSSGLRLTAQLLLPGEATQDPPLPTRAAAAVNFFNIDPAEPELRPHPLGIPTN
T1 sequence (P14416 1-414 isoform P14416-2): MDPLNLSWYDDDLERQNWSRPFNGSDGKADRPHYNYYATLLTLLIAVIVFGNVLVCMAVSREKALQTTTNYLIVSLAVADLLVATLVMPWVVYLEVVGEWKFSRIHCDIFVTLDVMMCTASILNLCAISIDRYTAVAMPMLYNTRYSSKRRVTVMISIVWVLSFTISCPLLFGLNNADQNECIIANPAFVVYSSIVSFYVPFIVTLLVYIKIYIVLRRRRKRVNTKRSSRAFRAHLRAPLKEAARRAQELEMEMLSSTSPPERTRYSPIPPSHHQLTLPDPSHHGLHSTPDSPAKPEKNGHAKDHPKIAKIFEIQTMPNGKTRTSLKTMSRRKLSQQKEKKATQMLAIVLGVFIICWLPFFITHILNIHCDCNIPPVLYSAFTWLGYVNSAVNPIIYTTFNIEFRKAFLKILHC

As usually defined, the Ki is a measure of affinity in units of concentration, obtained from inhibition or displacement. As to `CC(=O)Nc1ccc(NC(=O)NC(=N)NCc2cccc3ccccc23)cc1` [Example 1, N-(4-{[({Imino[(1-naphthylmethyl)amino]methyl}amino)carbonyl]amino}phenyl)acetamide], the Ki in assay [1] (setting [4]) was found to be 1770 nM; on human 5-HT1a receptors (setting [5]) it was 220 nM; at human 5HT2a receptors (setting [6]), 1 nM; in assay [2] (setting [7]) it was 13 nM; in assay [3] (setting [8]), 2500 nM.
For `CC(=O)NC(=N)NCc1cccc2ccccc12` [Example 3, N-Acetyl-N′-(1-naphthylmethyl)guanidine], the inhibition constant (Ki) is above 2500 nM in assay [1] (setting [4]); 1530 nM on human 5-HT1a receptors (setting [5]); 8 nM on human 5HT2a receptors (setting [6]); 100 nM in assay [2] (setting [7]); 2720 nM in assay [3] (setting [8]).
Taken in the same sequence, the figures for `COc1ccccc1CN1CCN(C(=O)NC(=N)NCc2cccc3ccccc23)CC1` [Example 5, N-{[4-(2-Methoxybenzyl)-1-piperazinyl]carbonyl}-N′-(1-naphthylmethyl)guanidine] were 2010 nM, 2390 nM, 46 nM, 26 nM and 1960 nM.
On the same counts, the results for `N=C(NCc1cccc2ccccc12)NC(=O)NC1CCN(Cc2ccccc2)CC1` [Example 6, 1-Benzyl-4-{[({imino[(1-naphthylmethyl)amino]methyl}amino)carbonyl]amino}piperidine] are 1050 nM, 770 nM, 13 nM, 68 nM and 8630 nM.
On the same counts, the results for `N=C(NCc1cccc2ccccc12)NC(=O)N1CCN(Cc2ccccc2)CC1` [Example 7, N-[(4-Benzyl-1-piperazinyl)carbonyl]-N′-(1-naphthylmethyl)guanidine] are 770 nM, 1690 nM, 43 nM, 1.4 nM and above 10000 nM.
Take `N=C(NCc1cccc2ccccc12)NC(=O)N1CCC(C(N)=O)CC1` [Example 8, 1-[({imino[(1-naphthylmethyl)amino]methyl}amino)carbonyl]-4-piperidinecarboxamide]: the Ki in assay [1] (setting [4]) was above 2500 nM; at human 5-HT1a receptors (setting [5]), above 4000 nM; on human 5HT2a receptors (setting [6]) it was 40 nM; in assay [2] (setting [7]), 12 nM; in assay [3] (setting [8]), above 10000 nM.
Taken in the same sequence, the figures for `COc1ccccc1N1CCN(C(=O)NC(=N)NCc2cccc3ccccc23)CC1` [Example 21, N-{[4-(2-Methoxyphenyl)-1-piperazinyl]carbonyl}-N′-(1-naphthylmethyl)guanidine] were 900 nM, 520 nM, 150 nM, 6 nM and above 10000 nM.
Taken in the same sequence, the figures for `N=C(NCc1cccc2ccccc12)NC(=O)N[C@H]1C[C@@H]2CC[C@H]1C2` [Example 23, 1-({[({[(1S,2S,4R)Bicyclo[2.2.1]hept-2-ylamino]carbonyl}amino) (imino)methyl]amino}methyl)naphthalene] were 280 nM, 220 nM, 4 nM, 9.7 nM and 1930 nM.
On the same counts, the results for `N=C(NCc1cccc2ccccc12)NC(=O)N1CCN(C/C=C/c2ccccc2)CC1` [Example 24, N-(1-Naphthylmethyl)-N′-({4-[(E)-3-phenyl-2-propenyl]-1-piperazinyl}carbonyl)guanidine] are 820 nM, 2620 nM, 78 nM, 3.2 nM and 1910 nM.
Consider `N=C(NCc1cccc2ccccc12)NC(=O)N1CCC(Nc2ccccc2)CC1` [Example 25, N-[(4-Anilino-1-piperidinyl)carbonyl]-N-(1-naphthylmethyl)guanidine], for which the Ki in assay [1] is 1470 nM; on human 5-HT1a receptors, 2590 nM; on human 5HT2a receptors it was 120 nM; in assay [2] it was 7.4 nM; in assay [3], above 10000 nM.
Consider `N=C(NCc1cccc2ccccc12)NC(=O)N1CCC(Cc2ccccc2)CC1` [Example 29, N-[(4-Benzyl-1-piperidinyl)carbonyl]-N′-(1-naphthylmethyl)guanidine], for which the Ki in assay [1] (setting [4]) is above 2500 nM; on human 5-HT1a receptors (setting [5]), 2690 nM; on human 5HT2a receptors (setting [6]), 170 nM; in assay [2] (setting [7]), 16 nM; in assay [3] (setting [8]), above 10000 nM.
With `N=C(NCCc1ccccc1)NC(=O)N1CCN(Cc2ccccc2)CC1` [Example 61, N-[(4-Benzyl-1-piperazinyl)carbonyl]-N′-phenethylguanidine], the inhibition constant Ki in assay [1] (setting [4]) was above 2500 nM; on human 5-HT1a receptors (setting [5]) it was 930 nM; on human 5HT2a receptors (setting [6]) it was 1800 nM; in assay [2] (setting [7]) it was 490 nM.
`CCOc1ccccc1CNC(=N)NC(=O)NC` [Example 84, 1-Ethoxy-2-{[(imino{[(methylamino)carbonyl]amino}methyl)amino]methyl}benzene]: the inhibitory constant (Ki) in assay [1] (setting [4]) is above 2500 nM; at human 5-HT1a receptors (setting [5]) it was above 4000 nM; at human 5HT2a receptors (setting [6]), 400 nM; in assay [3] (setting [8]), 8660 nM.

These data come from patent publication US20040044037A1, “Amidino-urea serotonin receptor ligands and compositions, their pharmaceutical uses, and methods for their snythesis” (priority 2003, published 2004).
